{
  "source": "ChEMBL document CHEMBL6092168",
  "about": "“Identification of novel indolinone derivatives as CTSC inhibitors to treat inflammatory bowel disease by modulating inflammatory factors” (Eur J Med Chem, 2024)",
  "key": {"RAW264.7 [1]": {"system": "RAW264.7", "assay": "Anti-inflammatory activity in mouse RAW264.7 cells assessed as inhibition of LPS-induced NO production preincubated for 1 hr followed by LPS addition and measured after 24 hrs by Griess reagent based assay", "assay_type": "functional, cell-based"}, "Dipeptidyl peptidase 1": {"target": "Dipeptidyl peptidase 1 (Homo sapiens, UniProt P53634)", "sequence (P53634 25-134 limits assumed)": "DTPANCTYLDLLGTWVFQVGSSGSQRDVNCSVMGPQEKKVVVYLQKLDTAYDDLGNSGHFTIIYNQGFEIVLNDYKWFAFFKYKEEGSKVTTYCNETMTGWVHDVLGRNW", "sequence (P53634 231-394 limits assumed)": "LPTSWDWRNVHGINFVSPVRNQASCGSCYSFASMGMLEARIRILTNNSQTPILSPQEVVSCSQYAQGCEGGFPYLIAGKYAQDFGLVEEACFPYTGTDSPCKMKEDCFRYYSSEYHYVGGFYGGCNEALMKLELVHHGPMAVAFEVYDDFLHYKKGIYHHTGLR", "sequence (P53634 395-463 limits assumed)": "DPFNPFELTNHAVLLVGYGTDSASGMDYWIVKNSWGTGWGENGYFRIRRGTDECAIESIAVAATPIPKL", "assay": "Induction of thermal stabilization of Cathepsin C in human U-937 cell incubated for 1 hrs at 37 to 65 degreeC by CETSA based Western blot analysis", "conditions": "dose 10-20 µM"}, "[2]": {"target": "T1, Neutrophil elastase (Homo sapiens) (UniProt P08246)", "T1 sequence (whole entry)": "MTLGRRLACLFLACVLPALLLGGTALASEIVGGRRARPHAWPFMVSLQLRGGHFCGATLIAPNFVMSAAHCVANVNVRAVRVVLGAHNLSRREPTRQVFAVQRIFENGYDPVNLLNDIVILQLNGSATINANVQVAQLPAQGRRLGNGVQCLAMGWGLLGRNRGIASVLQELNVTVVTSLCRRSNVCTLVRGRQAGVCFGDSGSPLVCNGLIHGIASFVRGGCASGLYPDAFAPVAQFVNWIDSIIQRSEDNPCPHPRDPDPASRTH", "assay": "Inhibition of neutrophil elastase in human U-937 cells using N-MeSuc-Ala-Pro-Val-pNA as substrate at 10 uM incubated for 5 days by […] based microplate reader analysis relative to control", "assay_type": "cell-based", "conditions": "time 5.0 day"}, "[3]": {"target": "T2, Neutrophil elastase (Mus musculus) (UniProt Q3UP87)", "T2 sequence (whole entry)": "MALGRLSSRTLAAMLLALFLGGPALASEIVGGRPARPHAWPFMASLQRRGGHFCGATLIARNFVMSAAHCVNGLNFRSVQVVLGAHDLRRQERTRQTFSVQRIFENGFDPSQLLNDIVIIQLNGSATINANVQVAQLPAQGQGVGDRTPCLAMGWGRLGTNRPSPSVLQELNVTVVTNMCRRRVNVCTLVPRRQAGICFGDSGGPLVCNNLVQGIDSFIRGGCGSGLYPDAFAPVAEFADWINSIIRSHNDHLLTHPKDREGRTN", "assay": "Induction of neutrophil elastase degradation in C57BL/6 mouse bone marrow cells assessed as residual activity at 10 uM incubated for 48 hrs by Western blot analysis relative to control", "assay_type": "cell-based", "conditions": "Bone marrow cell"}, "[4]": {"assay": "Cmax in male Sprague-Dawley rat at 2 mg/kg, iv measured at 5 to 1440 mins by LC-MS/MS analysis", "assay_type": "ADME, organism-based", "conditions": "in vivo, time 5-1440 min"}, "[5]": {"target": "T3, Dipeptidyl peptidase 1 (Mus musculus) (UniProt P97821)", "T3 sequence (whole entry)": "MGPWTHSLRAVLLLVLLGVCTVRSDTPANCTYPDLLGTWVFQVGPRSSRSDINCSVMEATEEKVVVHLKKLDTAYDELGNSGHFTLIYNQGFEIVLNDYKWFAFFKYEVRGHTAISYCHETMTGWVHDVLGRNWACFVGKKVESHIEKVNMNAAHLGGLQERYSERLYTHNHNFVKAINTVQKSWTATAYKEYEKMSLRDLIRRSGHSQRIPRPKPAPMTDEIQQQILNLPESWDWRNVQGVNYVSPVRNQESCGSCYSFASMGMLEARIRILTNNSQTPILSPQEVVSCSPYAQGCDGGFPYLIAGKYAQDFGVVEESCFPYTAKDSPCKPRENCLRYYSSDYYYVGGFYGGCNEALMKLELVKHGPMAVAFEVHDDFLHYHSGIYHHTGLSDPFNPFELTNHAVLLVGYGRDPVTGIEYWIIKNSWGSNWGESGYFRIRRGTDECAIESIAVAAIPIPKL", "assay": "In vivo inhibition of Cathepsin C in C57BL/6 mouse assessed as reduction in cathepsin C activity in blood at 15 mg/kg, po administered once daily for 6 days by fluorescence based microplate reader relative to control", "assay_type": "functional, organism-based", "conditions": "time 6.0 day"}, "[6]": {"target": "T2, Neutrophil elastase (Mus musculus)", "assay": "In vivo inhibition of neutrophil elastase in C57BL/6 mouse assessed as reduction in neutrophil elastase activity in blood at 30 mg/kg, po administered once daily for 6 days by fluorescence based microplate reader relative to control", "assay_type": "functional, organism-based", "conditions": "time 6.0 day"}, "[7]": {"target": "T4, Cathepsin G (Mus musculus) (UniProt P28293)", "T4 sequence (whole entry)": "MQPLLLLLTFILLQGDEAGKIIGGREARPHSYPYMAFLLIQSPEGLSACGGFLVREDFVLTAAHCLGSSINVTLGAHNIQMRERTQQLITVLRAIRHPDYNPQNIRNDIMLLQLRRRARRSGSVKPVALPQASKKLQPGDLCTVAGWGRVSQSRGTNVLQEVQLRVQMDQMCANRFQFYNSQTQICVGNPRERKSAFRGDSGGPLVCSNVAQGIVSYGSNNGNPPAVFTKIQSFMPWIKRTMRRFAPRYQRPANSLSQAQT", "assay": "In vivo inhibition of Cathepsin G in C57BL/6 mouse assessed as reduction in cathepsin G activity in bone marrow at 30 mg/kg, po administered once daily for 6 days by fluorescence based microplate reader relative to control", "assay_type": "functional, organism-based", "conditions": "time 6.0 day"}, "RAW264.7 [8]": {"system": "RAW264.7", "assay": "Anti-inflammatory activity in LPS-stimulated mouse RAW264.7 cells assessed as reduction in GM-CSF production incubated for 24 hrs by ELISA", "assay_type": "functional, cell-based", "conditions": "dose 0.62-5 µM"}, "Mus musculus [9]": {"system": "Mus musculus", "assay": "Anti-inflammatory activity in DSS-induced ulcerative colitis male C57BL/6 mouse model assessed as reduction in inflammatory epithelial destruction in colon at 60 mg/kg administered via gavage for 10 days by H and E staining based analysis", "assay_type": "functional, organism-based", "conditions": "time 10.0 day"}, "Mus musculus [10]": {"system": "Mus musculus", "assay": "Anti-inflammatory activity in DSS-induced ulcerative colitis male C57BL/6 mouse model assessed as reduction in Cathepsin G level in colon at 60 mg/kg administered via gavage for 10 days relative to control", "assay_type": "functional", "parameters": "scale not given: the % may be the effect or the level left", "conditions": "time 10 day"}, "[11]": {"target": "T5, Myeloblastin (Mus musculus) (UniProt Q61096)", "T5 sequence (whole entry)": "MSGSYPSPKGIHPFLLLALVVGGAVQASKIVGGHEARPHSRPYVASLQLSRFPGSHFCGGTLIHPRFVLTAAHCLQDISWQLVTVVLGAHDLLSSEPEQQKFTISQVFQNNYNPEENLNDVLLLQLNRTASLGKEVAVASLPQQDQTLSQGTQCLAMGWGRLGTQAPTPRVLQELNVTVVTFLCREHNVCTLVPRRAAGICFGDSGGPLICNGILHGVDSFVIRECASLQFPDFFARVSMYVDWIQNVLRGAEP", "assay": "In vivo inhibition of proteinase 3 in C57BL/6 mouse assessed as reduction in proteinase 3 activity in blood administered orally once daily for 6 days by fluorescence based microplate reader", "assay_type": "functional, organism-based", "conditions": "dose 5-30 mg/kg, route po, time 6.0 day"}, "Mus musculus [12]": {"system": "Mus musculus", "assay": "Anti-inflammatory activity in DSS-induced ulcerative colitis male C57BL/6 mouse model assessed as reduction in proteinase 3 level in serum at 15 to 30 mg/kg administered via gavage for 10 days", "assay_type": "functional, organism-based", "conditions": "dose 15-30 mg/kg, time 10.0 day"}, "Mus musculus [13]": {"system": "Mus musculus", "assay": "Anti-inflammatory activity in DSS-induced ulcerative colitis male C57BL/6 mouse model assessed as reduction in proteinase 3 level in colon at 15 to 30 mg/kg administered via gavage for 10 days", "assay_type": "functional, organism-based", "conditions": "dose 15-30 mg/kg, time 10.0 day"}, "Mus musculus [14]": {"system": "Mus musculus", "assay": "Anti-inflammatory activity in DSS-induced ulcerative colitis male C57BL/6 mouse model assessed as reduction in cathepsin G level in colon at 15 to 30 mg/kg administered via gavage for 10 days", "assay_type": "functional, organism-based", "conditions": "dose 15-30 mg/kg, time 10.0 day"}},
  "note": "Active and inactive are the calls of the source. The rule behind the calls is not given here.",
  "data": [
    {"smiles": "O=C1Nc2c(cccc2-c2ccc(NC3CCOCC3)cc2)/C1=C/c1ccnc2ccccc12", "values": [
      {"measurement": "IC50", "setting": "RAW264.7 [1]", "value": 5.5, "unit": "µM"},
      {"measurement": "Activity", "setting": "Dipeptidyl peptidase 1", "value": "Dose-dependent-effect; Significant Thermal Stability Observed"},
      {"measurement": "inhibition", "setting": "[2]", "value": 24.5, "unit": "%"},
      {"measurement": "Activity", "setting": "[3]", "value": 6.65, "unit": "%"},
      {"measurement": "Cmax", "setting": "[4]", "value": 309, "unit": "ng/mL"},
      {"measurement": "inhibition", "setting": "[5]", "value": "< 50", "unit": "%"},
      {"measurement": "inhibition", "setting": "[6]", "value": 42.9, "unit": "%"},
      {"measurement": "inhibition", "setting": "[7]", "value": 55.2, "unit": "%"},
      {"measurement": "Activity", "setting": "RAW264.7 [8]", "value": "Dose-dependent-effect"},
      {"measurement": "Activity", "setting": "Mus musculus [9]", "value": "Active"},
      {"measurement": "Activity", "setting": "Mus musculus [10]", "value": 51, "unit": "%"},
      {"measurement": "inhibition", "setting": "[11]", "value": "Dose-dependent-effect"},
      {"measurement": "Activity", "setting": "Mus musculus [12]", "value": "inactive"},
      {"measurement": "Activity", "setting": "Mus musculus [13]", "value": "inactive"},
      {"measurement": "Activity", "setting": "Mus musculus [14]", "value": "inactive"}
    ]}
  ]
}
